In the supplement of paper PMC10307832:

How the values were obtained:
Assay in all cases: relative viability (nuclei count vs DMSO), 5 days (fraction); higher = more cells survive
IPA-3 + Bortezomib = compound: C1=CC=C2C(=C1)C=CC(=C2SSC3=C(C=CC4=CC=CC=C43)O)O [IPA-3] + CC(C)C[C@H](NC(=O)[C@H](Cc1ccccc1)NC(=O)c1cnccn1)B(O)O [Bortezomib] (partner 0.002 µM)
How it was run: (§1)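 Relative viability was taken as the ratio of nuclei in treated wells to nuclei in vehicle wells. Lung cancer cell lines in 1536-well plates received compounds by pin tool one day after seeding, either one drug alone or a fixed anchor-drug dose plus five library-drug doses (not always all listed) in √10 steps. Nuclei were counted on 4× images after 5 days of treatment, and values are medians of duplicate plates.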

IPA-3 + Crizotinib = compound: C1=CC=C2C(=C1)C=CC(=C2SSC3=C(C=CC4=CC=CC=C43)O)O [IPA-3] + C[C@@H](Oc1cc(-c2cnn(C3CCNCC3)c2)cnc1N)c1c(Cl)ccc(F)c1Cl [Crizotinib] (partner 1 µM)
How it was run: as §1

Doramapimod + Decitabine = compound: Cc1ccc(-n2nc(C(C)(C)C)cc2NC(=O)Nc2ccc(OCCN3CCOCC3)c3ccccc23)cc1 [Doramapimod] + Nc1ncn([C@H]2C[C@H](O)[C@@H](CO)O2)c(=O)n1 [Decitabine] (partner 2 µM)
How it was run: as §1

RAF265 + Luminespib = compound: Cn1c(Nc2ccc(C(F)(F)F)cc2)nc2cc(Oc3ccnc(-c4ncc(C(F)(F)F)[nH]4)c3)ccc21 [RAF265] + CCNC(=O)c1noc(-c2cc(C(C)C)c(O)cc2O)c1-c1ccc(CN2CCOCC2)cc1 [Luminespib] (partner 0.01 µM)
How it was run: as §1

Cell Line	relative viability (IPA-3 + Bortezomib; first compound 0.2 µM)	relative viability (IPA-3 + Bortezomib; first compound 0.6325 µM)	relative viability (IPA-3 + Bortezomib; first compound 2 µM)	relative viability (IPA-3 + Bortezomib; first compound 6.325 µM)	relative viability (IPA-3 + Bortezomib; first compound 20 µM)	relative viability (IPA-3 + Crizotinib; first compound 0.2 µM)	relative viability (IPA-3 + Crizotinib; first compound 0.6325 µM)	relative viability (IPA-3 + Crizotinib; first compound 2 µM)	relative viability (IPA-3 + Crizotinib; first compound 6.325 µM)	relative viability (IPA-3 + Crizotinib; first compound 20 µM)	relative viability (Doramapimod + Decitabine; first compound 0.02 µM)	relative viability (Doramapimod + Decitabine; first compound 0.06325 µM)	relative viability (Doramapimod + Decitabine; first compound 0.2 µM)	relative viability (Doramapimod + Decitabine; first compound 0.6325 µM)	relative viability (Doramapimod + Decitabine; first compound 2 µM)	relative viability (RAF265 + Luminespib; first compound 0.01 µM)	relative viability (RAF265 + Luminespib; first compound 0.03162 µM)	relative viability (RAF265 + Luminespib; first compound 0.1 µM)	relative viability (RAF265 + Luminespib; first compound 0.3162 µM)	relative viability (RAF265 + Luminespib; first compound 1 µM)
NCI-H322M	1.31	1.21	1.19	1.32	1.23	1.08	0.933	0.96	0.886	1.1	0.722	0.671	0.736	0.785	0.706	0.868	0.722	0.545	0.305	0.304
NCI-H1792	1.1	0.928	1.08	0.895	1.16	1.14	1.01	1.01	0.996	1.16	0.462	0.532	0.505	0.571	0.47	0.46	0.528	0.379	0.317	0.148
LXF-289	1.03	0.954	1.04	1.04	1.1	0.828	0.764	0.811	0.829	0.86	0.374	0.393	0.354	0.373	0.351	0.736	0.6	0.699	0.534	0.357
HCC-827	1.1	0.936	1.01	0.996	1	0.927	0.89	0.865	0.873	0.859	0.34	0.38	0.326	0.243	0.211	0.837	0.652	0.74	–	0.132
EMC-BAC-2	1.16	1.11	1.04	1.04	1.22	0.79	0.769	0.771	0.698	0.829	1	0.905	0.99	0.955	0.858	1.2	0.998	1.01	0.819	0.357
NCI-H520	1.13	0.769	0.536	0.684	0.487	0.962	0.803	0.682	0.74	0.919	0.408	0.46	0.536	0.552	0.424	0.211	0.232	0.235	0.208	0.215
NCI-H1755	1.02	0.905	0.946	0.997	1.08	0.971	0.763	0.964	0.808	0.95	0.778	0.753	0.711	0.666	0.706	0.627	0.45	0.351	0.262	0.398
NCI-H522	–	–	–	–	–	–	–	–	–	–	0.751	0.7	0.626	0.683	0.577	0.984	1.26	1.27	–	0.957
SK-MES-1	–	–	–	–	–	0.981	1	1.13	0.94	0.87	0.329	0.355	0.356	0.424	0.315	0.726	0.414	0.33	0.228	0.191
NCI-H1299	0.995	1.01	0.996	0.996	1	0.974	0.935	0.96	0.928	0.961	–	–	–	–	–	–	–	–	–	–
NCI-H1563	1.03	0.689	0.801	0.996	0.846	0.899	0.891	0.938	1.11	1.02	–	–	–	–	–	0.56	0.511	0.589	0.529	0.485
NCI-H1944	–	–	–	–	–	1.21	0.995	1.11	1.17	1.07	0.459	0.491	0.447	0.423	0.414	0.858	0.71	0.726	0.529	0.332
LK-2	–	–	–	–	–	0.202	0.229	0.227	0.22	0.193	0.294	0.288	0.25	0.232	0.266	0.172	0.227	0.196	0.236	0.191
Calu-6	1.02	1.04	0.895	0.959	0.837	1.06	0.75	0.81	0.795	0.966	–	–	–	–	–	–	–	–	–	–
NCI-H1395	–	–	–	–	–	–	–	–	–	–	0.745	0.722	0.71	0.682	0.64	0.633	0.726	0.7	0.658	0.509
NCI-H1703	0.265	0.288	0.463	0.579	0.445	0.819	0.593	0.757	0.669	0.469	–	–	–	–	–	–	–	–	–	–
EBC-1	0.488	0.548	0.546	0.546	0.581	0.188	0.186	0.168	0.195	0.193	–	–	–	–	–	–	–	–	–	–
NCI-H1648	–	–	–	–	–	–	–	–	–	–	0.465	0.544	0.452	0.402	0.389	–	–	–	–	–
SW 900	–	–	–	–	–	–	–	–	–	–	0.355	0.439	0.36	0.405	0.437	0.204	0.182	0.169	0.154	0.145
NCI-H2342	–	–	–	–	–	–	–	–	–	–	0.653	0.807	0.686	0.673	0.74	0.713	0.68	0.685	0.577	0.519
A549	–	–	–	–	–	0.886	0.76	0.745	0.819	0.89	0.235	0.309	0.312	0.175	0.278	–	–	–	–	–
HCC-78	0.624	0.359	0.555	0.479	0.675	0.341	0.341	0.365	0.322	0.399	0.753	0.794	0.635	0.609	0.624	–	–	–	–	–
